Laboratory results as given in ChEMBL document CHEMBL1201862, “PubChem BioAssay data set” (2004).
Activity calls are given as the source filed them. No stated cut-off is given here; in the data, actives have a measured IC50 and inactives only a lower limit.

Target: Envelope glycoprotein gp160 (Human immunodeficiency virus 1, UniProt Q6QLK5)
Test: cell-free HIV fusion peptide-binding blockers – biochemical, uHTS, fluorescence dequenching, […] (AID 1986)

Envelope glycoprotein gp160, sequence (Q6QLK5 whole entry, the tested form may be a part): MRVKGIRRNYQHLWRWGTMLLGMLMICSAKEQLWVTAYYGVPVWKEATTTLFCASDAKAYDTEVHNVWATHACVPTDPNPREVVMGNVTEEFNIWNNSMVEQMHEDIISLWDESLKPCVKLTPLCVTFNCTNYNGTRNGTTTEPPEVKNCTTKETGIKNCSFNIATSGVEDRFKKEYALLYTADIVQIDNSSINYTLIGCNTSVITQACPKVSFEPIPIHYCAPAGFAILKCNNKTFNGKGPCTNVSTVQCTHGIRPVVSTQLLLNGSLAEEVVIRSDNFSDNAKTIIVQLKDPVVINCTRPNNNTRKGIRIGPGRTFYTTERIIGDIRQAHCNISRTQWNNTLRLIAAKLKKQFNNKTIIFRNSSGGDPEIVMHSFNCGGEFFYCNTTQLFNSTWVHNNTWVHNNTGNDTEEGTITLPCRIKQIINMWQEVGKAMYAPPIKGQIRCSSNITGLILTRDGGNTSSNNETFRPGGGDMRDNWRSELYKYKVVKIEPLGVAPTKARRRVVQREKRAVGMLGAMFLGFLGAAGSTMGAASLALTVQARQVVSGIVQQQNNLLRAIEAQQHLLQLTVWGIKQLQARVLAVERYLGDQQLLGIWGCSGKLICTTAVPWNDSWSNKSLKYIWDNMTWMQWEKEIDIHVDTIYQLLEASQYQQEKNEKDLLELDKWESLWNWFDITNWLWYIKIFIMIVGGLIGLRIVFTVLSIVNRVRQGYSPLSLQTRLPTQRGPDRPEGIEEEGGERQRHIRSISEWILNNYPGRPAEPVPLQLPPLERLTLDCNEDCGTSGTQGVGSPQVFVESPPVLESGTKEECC

| Structure (SMILES) | IC50 |
| --- | --- |
| NC(=O)Cn1cc(C=C2C(=O)NC(=O)NC2=O)c2ccccc21 | 69.2 µM (active) |
| Cc1ccc(NC(=O)COc2cccc(/C=C3\SC(=S)N(CCC(=O)O)C3=O)c2)cc1Cl | 12.2 µM (active) |
